Results: ChEMBL document CHEMBL4602715, “Efficacy and Tolerability of Pyrazolo[1,5-a]pyrimidine RET Kinase Inhibitors for the Treatment of Lung Adenocarcinoma” (ACS Med Chem Lett, 2020)
Blank lines part the entries; values can stand above or below the compound they belong to. Activity calls are given as the source filed them. No cut-off for these calls is given here.

How the values were obtained:
[1] = Drug uptake in tumor of Harlan Foxn1 nude mouse xenografted with rat RIE cells transfected with KIF5B/RET at 3 to 30 mg/kg, po administered bid for 8 days by LC-MS/MS analysis; format: ADME, organism-based, Neoplasm; conditions: in vivo, 192 h
[2] = Drug uptake in plasma of Harlan Foxn1 nude mouse xenografted with rat RIE cells transfected with KIF5B/RET at 3 to 30 mg/kg, po administered bid for 8 days by LC-MS/MS analysis; format: ADME, organism-based; conditions: in vivo, 192 h
[3] = Oral bioavailability in BALB/c mouse at 20 mg/kg measured upto 24 hrs by LC-MS/MS analysis; format: ADME, organism-based; conditions: in vivo
[4] = AUC in BALB/c mouse at 20 mg/kg, po measured upto 24 hrs by LC-MS/MS analysis; format: ADME, organism-based; design: dose 20 mg/kg, time < 24 hr, route oral; conditions: in vivo
[5] = Cmax in BALB/c mouse at 20 mg/kg, po measured upto 24 hrs by LC-MS/MS analysis; format: ADME, organism-based; design: dose 20 mg/kg, route oral; conditions: in vivo
[6] = Half life in BALB/c mouse at 20 mg/kg, po measured upto 24 hrs by LC-MS/MS analysis; format: ADME, organism-based; conditions: in vivo
[7] = AUC in BALB/c mouse at 5 mg/kg, iv measured upto 24 hrs by LC-MS/MS analysis; format: ADME, organism-based; design: dose 5 mg/kg, time < 24 hr, route intravenous; conditions: in vivo
[8] = Cmax in BALB/c mouse at 5 mg/kg, iv measured upto 24 hrs by LC-MS/MS analysis; format: ADME, organism-based; design: dose 5 mg/kg, route intravenous; conditions: in vivo
[9] = Half life in BALB/c mouse at 5 mg/kg, iv measured upto 24 hrs by LC-MS/MS analysis; format: ADME, organism-based; conditions: in vivo
[10] = Clearance in BALB/c mouse at 5 mg/kg, iv measured upto 24 hrs by LC-MS/MS analysis; format: ADME, organism-based; conditions: in vivo
[11] = Volume of distribution at steady state in BALB/c mouse at 5 mg/kg, iv measured upto 24 hrs by LC-MS/MS analysis; format: ADME, organism-based; conditions: in vivo, read-out: Vdss
LC-2-ad = assay: Cytotoxicity against human LC2/ad cells assessed as reduction in cell viability incubated for 6 days by CellTiter Glo assay; format: cell-based; conditions: 144 h
[12] = Ratio of AUC in BALB/c mouse brain to plasma at 20 mg/kg, po measured upto 24 hrs by LC-MS/MS analysis; format: ADME, organism-based; conditions: brain and plasma
[13] = Ratio of Cmax in BALB/c mouse brain to plasma at 20 mg/kg, po measured upto 24 hrs by LC-MS/MS analysis; format: ADME, organism-based; conditions: brain and plasma
[14] = target: T1, Voltage-gated inwardly rectifying potassium channel KCNH2 (Homo sapiens, UniProt Q12809); assay: Displacement of [3H]-dofetilide from human ERG expressed in CHO cells incubated for 90 mins by microbeta scintillation counting method; format: cell-based
[15] = target: T1, Voltage-gated inwardly rectifying potassium channel KCNH2; assay: Inhibition of human ERG expressed in human embryonic kidney cells by manual patch clamp assay; format: cell-based; conditions: read-out: IC50
Rattus norvegicus [16] = assay: Antitumor activity against rat RIE cells transfected with KIF5B/RET xenografted in Harlan Foxn1 nude mouse assessed as tumor regression at 30 mg/kg, po administered bid for 8 days; format: functional, organism-based
Rattus norvegicus [17] = assay: Antitumor activity against rat RIE cells transfected with KIF5B/RET xenografted in Harlan Foxn1 nude mouse assessed as tumor stasis at 10 mg/kg, po administered bid for 8 days; format: functional, organism-based
Rattus norvegicus [18] = assay: Antitumor activity against rat RIE cells transfected with KIF5B/RET xenografted in Harlan Foxn1 nude mouse assessed as inhibition of tumor growth at 3 mg/kg, po administered bid for 8 days; format: functional, organism-based
Mus musculus [19] = assay: In vivo inhibition of KIF5B/RET transfected in rat RIE cells xenografted in Harlan Foxn1 nude mouse assessed as reduction in RET phosphorylation at 30 mg/kg, po administered bid for 8 days and measured on day 8 after 5 hrs of dosing by Western blot analysis; format: functional, organism-based
Mus musculus [20] = assay: In vivo inhibition of KIF5B/RET transfected in rat RIE cells xenografted in Harlan Foxn1 nude mouse assessed as reduction in RET phosphorylation at 30 mg/kg, po administered bid for 8 days and measured on day 8 after 24 hrs of dosing by Western blot analysis; format: functional, organism-based
[21] = Toxicity in Harlan Foxn1 nude mouse xenografted with rat RIE cells transfected with KIF5B/RET assessed as adverse events at 3 to 30 mg/kg, po administered bid for 8 days; format: organism-based; conditions: in vivo, 192 h
[22] = Toxicity in Harlan Foxn1 nude mouse xenografted with rat RIE cells transfected with KIF5B/RET assessed as reduction in body weight at 30 to 60 mg/kg, po qd for 14 days; format: organism-based; conditions: in vivo, 336 h
[23] = Toxicity in Harlan Foxn1 nude mouse xenografted with rat RIE cells transfected with KIF5B/RET assessed as reddish mottled appearance of lungs at 30 to 60 mg/kg, po qd for 14 days; format: organism-based; conditions: in vivo, 336 h
[24] = Toxicity in Harlan Foxn1 nude mouse xenografted with rat RIE cells transfected with KIF5B/RET assessed as lung collapse at 30 to 60 mg/kg, po qd for 14 days; format: organism-based; conditions: in vivo, 336 h
[25] = Toxicity in Harlan Foxn1 nude mouse xenografted with rat RIE cells transfected with KIF5B/RET assessed as signs of hemorrhaging at 30 to 60 mg/kg, po qd for 14 days; format: organism-based; conditions: in vivo, 336 h
[26] = Toxicity in Harlan Foxn1 nude mouse xenografted with rat RIE cells transfected with KIF5B/RET at 10 mg/kg, po qd for 14 days; format: organism-based; conditions: in vivo, 336 h
[27] = Toxicity in Harlan Foxn1 nude mouse xenografted with rat RIE cells transfected with KIF5B/RET at 1 to 10 mg/kg, po qd for 10 days; format: organism-based; conditions: in vivo, 240 h
[28] = Toxicity in NSG mouse xenografted with human LC2/ad cells assessed as body weight loss at 10 mg/kg, po qd for 21 days measured following drug dosing termination on day 24; format: organism-based; conditions: in vivo, 504 h
[29] = Toxicity in NSG mouse xenografted with human LC2/ad cells assessed as necropsy in kidneys at 10 mg/kg, po qd for 21 days measured following drug dosing termination on day 24; format: organism-based; conditions: in vivo, 504 h
[30] = Drug uptake in plasma of Harlan Foxn1 nude mouse xenografted with rat RIE cells transfected with KIF5B/RET at 1 to 10 mg/kg, po qd for 10 days by LC-MS/MS analysis; format: ADME, organism-based; conditions: in vivo, 240 h

T1 sequence (Q12809 whole entry): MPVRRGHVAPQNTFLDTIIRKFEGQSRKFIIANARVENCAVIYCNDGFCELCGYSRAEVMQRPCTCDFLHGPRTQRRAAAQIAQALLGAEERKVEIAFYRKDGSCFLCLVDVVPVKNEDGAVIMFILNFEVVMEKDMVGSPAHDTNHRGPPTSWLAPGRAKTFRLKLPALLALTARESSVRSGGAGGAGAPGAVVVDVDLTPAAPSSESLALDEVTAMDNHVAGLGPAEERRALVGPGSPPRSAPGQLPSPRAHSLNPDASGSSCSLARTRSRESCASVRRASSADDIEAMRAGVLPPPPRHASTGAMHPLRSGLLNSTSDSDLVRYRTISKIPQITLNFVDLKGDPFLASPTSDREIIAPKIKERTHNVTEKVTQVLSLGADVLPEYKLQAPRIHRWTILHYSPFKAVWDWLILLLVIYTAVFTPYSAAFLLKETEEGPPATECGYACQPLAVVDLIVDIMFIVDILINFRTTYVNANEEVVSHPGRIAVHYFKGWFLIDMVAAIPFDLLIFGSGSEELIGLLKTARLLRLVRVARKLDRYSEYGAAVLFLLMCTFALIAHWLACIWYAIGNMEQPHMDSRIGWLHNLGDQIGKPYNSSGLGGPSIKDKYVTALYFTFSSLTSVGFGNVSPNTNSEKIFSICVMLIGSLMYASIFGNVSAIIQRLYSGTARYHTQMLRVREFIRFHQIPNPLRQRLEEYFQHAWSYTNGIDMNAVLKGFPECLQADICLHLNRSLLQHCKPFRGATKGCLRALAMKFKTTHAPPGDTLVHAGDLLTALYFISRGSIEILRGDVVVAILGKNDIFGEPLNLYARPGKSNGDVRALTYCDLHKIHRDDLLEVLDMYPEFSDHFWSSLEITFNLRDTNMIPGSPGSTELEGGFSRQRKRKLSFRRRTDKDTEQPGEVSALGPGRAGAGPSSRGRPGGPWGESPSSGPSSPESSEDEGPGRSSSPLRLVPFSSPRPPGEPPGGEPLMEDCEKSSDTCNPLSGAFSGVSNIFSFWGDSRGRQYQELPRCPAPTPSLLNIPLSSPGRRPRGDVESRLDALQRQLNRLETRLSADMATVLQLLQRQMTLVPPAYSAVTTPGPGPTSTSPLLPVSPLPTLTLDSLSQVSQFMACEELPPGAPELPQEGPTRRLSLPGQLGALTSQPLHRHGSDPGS

Drug uptake [1]: Active | Drug uptake [2]: Active | bioavailability [3]: 64% | AUC at 24 h [4]: 6.8 µM·h | Cmax [5]: 880 nM | half-life [6]: 150 min | AUC at 24 h [7]: 2.6 µM·h | Cmax [8]: 1600 nM | half-life [9]: 108 min | clearance [10]: 54 mL/min/kg | Vd [11]: 7.8 L/kg | Kp at 24 h [12]: 0.15 | Kp at 24 h [13]: 0.13
SMILES: CN1C(C)(C)CC(Nc2nc3c(-c4ccc(C(=O)N5C[C@@H]6C[C@H]5CO6)cc4)cnn3c(N)c2-c2ccccc2)CC1(C)C
IC50 (LC-2-ad): 3.4 µM | IC50 [14]: 4.7 µM | IC50 [15]: 2800 nM | Activity (Rattus norvegicus [16]): Active | Activity (Rattus norvegicus [17]): Active | Activity (Rattus norvegicus [18]): Active | inhibition (Mus musculus [19]): Active | inhibition (Mus musculus [20]): inactive | Activity [21]: Non-Toxic

SMILES: COc1ccc(-c2cnn3c(N)c(-c4ccccc4)c(NC4CC(C)(C)N(C)C(C)(C)C4)nc23)cc1OC.Cl
bioavailability [3]: 94% | AUC at 24 h [4]: 12 µM·h | Cmax [5]: 730 nM | half-life [6]: 660 min | Kp at 24 h [12]: 0.94 | Kp at 24 h [13]: 0.81 | Activity [22]: Toxic | Activity [23]: Toxic | Activity [24]: Toxic | Activity [25]: Toxic | Activity [26]: Non-Toxic | Activity [27]: Non-Toxic | Activity [28]: Toxic | Activity [29]: Toxic | Drug uptake [30]: Active
